Results from patent US5693815A, “Peptides” (Schering Corporation, priority 1995, dated 1997).

Target: HIV-1 protease (Human immunodeficiency virus type 1 group M subtype B, UniProt P04585)
Experiment: Inhibition of proteolytic activity of HIV-1 protease, Test 1 (method of Louis et al.)
Format: biochemical
Source text: TEST 1--INHIBITION OF PROTEOLYTIC ACTIVITY OF HIV-1-PROTEASE
The ability of compounds of the invention to inhibit the proteolytic activity of HIV-1 protease can be determined by using the method of Louis, et al., Biochem. Biophys. Res. Comm. 159:87-94, (1989), which is herein incorporated by reference. In using the method of Louis et al., HIV Substrate III, His-Lys-Ala-Arg-Val-Leu-pNO2 Phe-Glu-Ala-Nle-Ser-NH2 purchased from Bachem Bioscience, Inc. Philadelphia, Pa. can be used in place of the nonapeptide substrate […]amide.

Work on `CC(C)(C)NC(=O)c1ccccc1SCC(O)C(Cc1ccccc1)NC(=O)C1CC2CCCCC2N1C(=O)OC(C)(C)C` (stereo not shown) [U, 1-[(1,1-dimethylethoxy)carbonyl]-N-[3-[[2-[[(1,1-dimethylethyl)amino]carbonyl]phenyl]thio]-2(R and/or S)-hydroxy-1(R and/or S)-(phenylmethyl)-propyl]octahydroindole-2-carboxamide] yielded an IC50 of 38 µM.
